Literature values in patent US11026985B2, “Methods for removing contaminants from plant-derived pharmaceuticals” (priority 2018, dated 2021).

System: humans
Conditions: not given

Question: For `CCCCOCCOCCOCc1cc2c(cc1CCC)OCO2` [Piperonyl butoxide], which toxicity to humans is on record?
Answer: The toxicity to humans was “non-toxic”.

System: not given
Conditions: permissible limit in Cannabis, State of Oregon

Question: For `Cc1c(COC(=O)[C@@H]2[C@H](/C=C(\Cl)C(F)(F)F)C2(C)C)cccc1-c1ccccc1` (racemic) [Bifenthrin], which “Action Level (ppm)” value is on record?
Answer: Its value is 0.2 ppm.

Question: For `COP(=O)(NC(C)=O)SC` (stereo not shown) [Acephate], which “Action Level (ppm)” value is on record?
Answer: The value was 0.4 ppm.

Question: Which “Action Level (ppm)” value does the source give for `CCCCCCCCCCCCC1=C(OC(C)=O)C(=O)c2ccccc2C1=O` [Acequinocyl] here?
Answer: Its value is 2 ppm.

Question: With `C/C(=N\C#N)N(C)Cc1ccc(Cl)nc1` [Acetamiprid] as the compound, how does the “Action Level (ppm)” value read?
Answer: Its value is 0.2 ppm.

Question: Which “Action Level (ppm)” value does the source give for `CNC(=O)O/N=C/C(C)(C)SC` [Aldicarb] here?
Answer: The value was 0.4 ppm.

Question: With `COc1ccc(-c2ccccc2)cc1NNC(=O)OC(C)C` [Bifenazate] as the compound, how does the “Action Level (ppm)” value read?
Answer: The value was 0.2 ppm.

Question: For `O=C(Nc1ccccc1-c1ccc(Cl)cc1)c1cccnc1Cl` [Boscalid], which “Action Level (ppm)” value is on record?
Answer: Its value is 0.4 ppm.

Question: Which “Action Level (ppm)” value does the source give for `CNC(=O)Oc1cccc2ccccc12` [Carbaryl] here?
Answer: The value was 0.2 ppm.

Question: For `CNC(=O)Oc1cccc2c1OC(C)(C)C2` [Carbofuran], which “Action Level (ppm)” value is on record?
Answer: Its value is 0.2 ppm.

Question: For `CNC(=O)c1cc(Cl)cc(C)c1NC(=O)c1cc(Br)nn1-c1ncccc1Cl` [Chlorantraniliprole], which “Action Level (ppm)” value is on record?
Answer: The value was 0.2 ppm.

Question: Which “Action Level (ppm)” value does the source give for `CCOCn1c(-c2ccc(Cl)cc2)c(C#N)c(Br)c1C(F)(F)F` [Chlorfenapyr] here?
Answer: The value was 1 ppm.

Question: With `CC1(C)C(C=C(Cl)Cl)C1C(=O)OC(C#N)c1ccc(F)c(Oc2ccccc2)c1` (stereo not shown) [Cyfluthrin] as the compound, how does the “Action Level (ppm)” value read?
Answer: The value was 1 ppm.

Question: For `COP(=O)(OC)OC=C(Cl)Cl` [DDVP (Dichlorvos)], which “Action Level (ppm)” value is on record?
Answer: Its value is 0.1 ppm.

Question: For `CCOP(=S)(OCC)Oc1cc(C)nc(C(C)C)n1` [Diazinon], which “Action Level (ppm)” value is on record?
Answer: The value was 0.2 ppm.

Question: For `CNC(=O)CSP(=S)(OC)OC` [Dimethoate], which “Action Level (ppm)” value is on record?
Answer: The value was 0.2 ppm.

Question: For `CCOc1ccc(C(C)(C)COCc2cccc(Oc3ccccc3)c2)cc1` [Etofenprox], which “Action Level (ppm)” value is on record?
Answer: Its value is 0.4 ppm.

Question: With `CCOc1cc(C(C)(C)C)ccc1C1COC(c2c(F)cccc2F)=N1` (stereo not shown) [Etoxazole] as the compound, how does the “Action Level (ppm)” value read?
Answer: The value was 0.2 ppm.

Question: With `CCOC(=O)NCCOc1ccc(Oc2ccccc2)cc1` [Fenoxycarb] as the compound, how does the “Action Level (ppm)” value read?
Answer: Its value is 0.2 ppm.

Question: Which “Action Level (ppm)” value does the source give for `Cc1nn(C)c(Oc2ccccc2)c1/C=N/OCc1ccc(C(=O)OC(C)(C)C)cc1` [Fenpyroximate] here?
Answer: The value was 0.4 ppm.

Question: For `N#Cc1nn(-c2c(Cl)cc(C(F)(F)F)cc2Cl)c(N)c1[S+]([O-])C(F)(F)F` (stereo not shown) [Fipronil], which “Action Level (ppm)” value is on record?
Answer: The value was 0.4 ppm.

Question: With `N#CCNC(=O)c1cnccc1C(F)(F)F` [Flonicamid] as the compound, how does the “Action Level (ppm)” value read?
Answer: Its value is 1 ppm.

Question: For `N#Cc1c[nH]cc1-c1cccc2c1OC(F)(F)O2` [Fludioxonil], which “Action Level (ppm)” value is on record?
Answer: The value was 0.4 ppm.

Question: Which “Action Level (ppm)” value does the source give for `CC1C(c2ccc(Cl)cc2)SC(=O)N1C(=O)NC1CCCCC1` (stereo not shown) [Hexythiazox] here?
Answer: Its value is 1 ppm.

Question: For `C=CCOC(Cn1ccnc1)c1ccc(Cl)cc1Cl` (stereo not shown) [Imazalil], which “Action Level (ppm)” value is on record?
Answer: The value was 0.2 ppm.

Question: Which “Action Level (ppm)” value does the source give for `O=[N+]([O-])NC1=NCCN1Cc1ccc(Cl)nc1` [Imidacloprid] here?
Answer: Its value is 0.4 ppm.

Question: With `CO/N=C(/C(=O)OC)c1ccccc1COc1ccccc1C` [Kresoxim-methyl, Kresoxim- methyl] as the compound, how does the “Action Level (ppm)” value read?
Answer: The value was 0.4 ppm.

Question: Which “Action Level (ppm)” value does the source give for `CCCCC(CC)CN1C(=O)C2C3C=CC(C3)C2C1=O` (stereo not shown) [MGK-264] here?
Answer: The value was 0.2 ppm.

Question: For `CCOC(=O)CC(SP(=S)(OC)OC)C(=O)OCC` (stereo not shown) [Malathion], which “Action Level (ppm)” value is on record?
Answer: Its value is 0.2 ppm.

Question: For `COCC(=O)N(c1c(C)cccc1C)C(C)C(=O)OC` (stereo not shown) [Metalaxyl], which “Action Level (ppm)” value is on record?
Answer: The value was 0.2 ppm.

Question: With `CNC(=O)Oc1cc(C)c(SC)c(C)c1` [Methiocarb] as the compound, how does the “Action Level (ppm)” value read?
Answer: Its value is 0.2 ppm.

Question: Which “Action Level (ppm)” value does the source give for `CNC(=O)ON=C(C)SC` [Methomyl] here?
Answer: Its value is 0.4 ppm.

Question: Which “Action Level (ppm)” value does the source give for `CCCCC(C#N)(Cn1cncn1)c1ccc(Cl)cc1` (stereo not shown) [Myclobutanil] here?
Answer: Its value is 0.2 ppm.

Question: With `COP(=O)(OC)OC(Br)C(Cl)(Cl)Br` (stereo not shown) [Naled] as the compound, how does the “Action Level (ppm)” value read?
Answer: The value was 0.5 ppm.

Question: For `CNC(=O)O/N=C(\SC)C(=O)N(C)C` [Oxamyl], which “Action Level (ppm)” value is on record?
Answer: Its value is 1 ppm.

Question: For `CC1(C)C(C=C(Cl)Cl)C1C(=O)OCc1cccc(Oc2ccccc2)c1` (stereo not shown) [Permethrins], which “Action Level (ppm)” value is on record?
Answer: Its value is 0.2 ppm.

Question: For `COP(=S)(OC)SCN1C(=O)c2ccccc2C1=O` [Phosmet], which “Action Level (ppm)” value is on record?
Answer: The value was 0.2 ppm.

Question: Which “Action Level (ppm)” value does the source give for `C#CCC1=C(C)C(OC(=O)[C@@H]2[C@@H](C=C(C)C)C2(C)C)CC1=O` (stereo partly shown) [Prallethrin] here?
Answer: The value was 0.2 ppm.

Question: Which “Action Level (ppm)” value does the source give for `CCCC1COC(Cn2cncn2)(c2ccc(Cl)cc2Cl)O1` (stereo not shown) [Propiconazole] here?
Answer: Its value is 0.4 ppm.

Question: Which “Action Level (ppm)” value does the source give for `CNC(=O)Oc1ccccc1OC(C)C` [Propoxur] here?
Answer: Its value is 0.2 ppm.

Question: With `CC(C)(C)c1ccc(CSc2cnn(C(C)(C)C)c(=O)c2Cl)cc1` [Pyridaben] as the compound, how does the “Action Level (ppm)” value read?
Answer: Its value is 0.2 ppm.

Question: With `Cc1cc(C)c(C2=C(OC(=O)CC(C)(C)C)C3(CCCC3)OC2=O)c(C)c1` [Spiromesifen] as the compound, how does the “Action Level (ppm)” value read?
Answer: Its value is 0.2 ppm.

Question: With `CCOC(=O)OC1=C(c2cc(C)ccc2C)C(=O)N[C@]12CC[C@@H](OC)CC2` [Spirotetramat] as the compound, how does the “Action Level (ppm)” value read?
Answer: Its value is 0.2 ppm.

Question: With `CCCN(CC)CC1COC2(CCC(C(C)(C)C)CC2)O1` (stereo not shown) [Spiroxamine] as the compound, how does the “Action Level (ppm)” value read?
Answer: Its value is 0.4 ppm.

Question: With `CC(C)(C)C(O)(CCc1ccc(Cl)cc1)Cn1cncn1` (stereo not shown) [Tebuconazole] as the compound, how does the “Action Level (ppm)” value read?
Answer: Its value is 0.4 ppm.

Question: Which “Action Level (ppm)” value does the source give for `N#C/N=C1\SCCN1Cc1ccc(Cl)nc1` [Thiacloprid] here?
Answer: Its value is 0.2 ppm.

Question: Which “Action Level (ppm)” value does the source give for `CN1COCN(Cc2cnc(Cl)s2)/C1=N\[N+](=O)[O-]` [Thiamethoxam] here?
Answer: Its value is 0.2 ppm.

Question: With `CO/N=C(/C(=O)OC)c1ccccc1CO/N=C(\C)c1cccc(C(F)(F)F)c1` [Trifloxystrobin] as the compound, how does the “Action Level (ppm)” value read?
Answer: Its value is 0.2 ppm.

Question: With Abamectin as the compound, how does the “Action Level (ppm)” value read?
Answer: Its value is 0.5 ppm.

Question: Which “Action Level (ppm)” value does the source give for Spinosad here?
Answer: Its value is 0.2 ppm.

System: not given
Conditions: not given

Question: With `C=C(C)[C@@H]1CCC(C)=C[C@H]1c1c(O)cc(CCC)cc1O` [Cannabidivarin] as the compound, how does the “Water Soluble?” value read?
Answer: Its value is “No”.

Question: For `CCCCCc1cc(O)c(C/C=C(\C)CCC=C(C)C)c(O)c1` [Cannabigerol], which “Water Soluble?” value is on record?
Answer: Its value is “No”.
